Results on six molecules are retold here after US20110172147A1, “NEUROPEPTIDE-2 RECEPTOR (Y-2R) AGONISTS” (priority 2009, published 2011).

Format in all cases: cell-based
One experiment has as its target T1, hNPY2R (Homo sapiens, UniProt P49146).
T1 sequence (P49146 1-381): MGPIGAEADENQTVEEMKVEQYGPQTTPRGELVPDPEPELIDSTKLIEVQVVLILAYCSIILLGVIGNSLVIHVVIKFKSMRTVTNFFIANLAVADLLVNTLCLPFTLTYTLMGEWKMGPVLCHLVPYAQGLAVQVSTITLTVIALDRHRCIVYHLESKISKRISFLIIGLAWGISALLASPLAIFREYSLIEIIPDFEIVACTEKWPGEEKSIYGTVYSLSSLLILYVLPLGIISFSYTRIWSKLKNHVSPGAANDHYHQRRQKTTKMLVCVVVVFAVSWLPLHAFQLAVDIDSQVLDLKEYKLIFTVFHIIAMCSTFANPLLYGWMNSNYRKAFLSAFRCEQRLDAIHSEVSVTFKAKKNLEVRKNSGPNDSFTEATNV
As to the kind of experiment: cAMP Agonist Assay, HEK293/hNPY2R. Set-up: expressed in transfected cells; host or cells: HEK293/hNPY2R (G418 selection). The method, boiled down: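 HEK293/hNPY2R cells (10,000/well, overnight) stimulated 30 min at room temperature with compound plus 5 μM forskolin and 0.5 mM IBMX (1.1% DMSO final). Lysate cAMP measured by competitive chemiluminescent ELISA (AP conjugate, CSPD substrate); quadruplicates.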

A further experiment has as its target T2, Y1R (Homo sapiens, UniProt P25929).
T2 sequence (P25929 1-384): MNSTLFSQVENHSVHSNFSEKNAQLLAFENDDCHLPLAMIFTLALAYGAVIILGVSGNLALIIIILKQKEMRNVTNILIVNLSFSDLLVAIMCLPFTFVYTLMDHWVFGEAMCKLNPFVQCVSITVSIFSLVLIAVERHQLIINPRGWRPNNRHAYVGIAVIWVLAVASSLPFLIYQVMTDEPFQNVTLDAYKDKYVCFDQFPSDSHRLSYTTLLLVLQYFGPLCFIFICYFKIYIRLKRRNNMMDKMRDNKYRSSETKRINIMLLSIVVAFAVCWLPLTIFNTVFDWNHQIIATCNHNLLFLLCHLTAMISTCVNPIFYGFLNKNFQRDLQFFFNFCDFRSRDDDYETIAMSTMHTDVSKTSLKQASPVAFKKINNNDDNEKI
In words: CaFlux Assay (FLIPR), Y1R.

A further experiment deals with Y4R (Homo sapiens, UniProt P50391). In words: CaFlux Assay (FLIPR), Y4R.
[1] abbreviates: HEK293/hNPY2R cells, Forskolin 5 μM; read-out: Y2R EC50 (nM) cAMP.
Where [2] appears, read: FLIPR; read-out: Y1R EC50 (nM) FLIPR.
The mark [3] stands for this setting: FLIPR; read-out: Y4R EC50 (nM) FLIPR.

The structures appear in SMILES notation. Read-outs that look alike come from different tables or passages of the source. Some results are limits rather than exact numbers.

Y4R, sequence (P50391 whole entry): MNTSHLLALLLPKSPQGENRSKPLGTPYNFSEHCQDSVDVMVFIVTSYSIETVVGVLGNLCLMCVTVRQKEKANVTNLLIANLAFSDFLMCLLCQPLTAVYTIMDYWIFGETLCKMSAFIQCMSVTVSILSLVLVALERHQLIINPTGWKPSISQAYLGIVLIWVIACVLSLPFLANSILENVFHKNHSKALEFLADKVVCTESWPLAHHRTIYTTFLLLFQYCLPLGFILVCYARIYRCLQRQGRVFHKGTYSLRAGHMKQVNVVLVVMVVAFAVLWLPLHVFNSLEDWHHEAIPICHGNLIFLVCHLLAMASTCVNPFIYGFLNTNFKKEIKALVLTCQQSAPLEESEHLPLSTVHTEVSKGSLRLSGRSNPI

As to `CCCCCCCCCCCCCCCCCCCC(=O)N[C@@H](CCS(=O)(=O)O)C(=O)N[C@@H](CCS(=O)(=O)O)C(=O)NCCCC[C@H](NC(=O)[C@@H](NC(=O)CCOCCOCCOCCOCCOCCOCCOCCOCCOCCOCCOCCOCCOCCOCCOCCOCCOCCOCCOCCOCCOCCOCCOCCOC)[C@@H](C)CC)C(=O)N1CCN(c2ccc3ncn(CC(=O)N[C@@H](CCCNC(=N)N)C(=O)NC(Cc4c[nH]cn4)C(=O)N[C@@H](Cc4ccc(O)cc4)C(=O)NC(CC(C)C)C(=O)N[C@@H](CC(N)=O)C(=O)NC(Cc4c[nH]c5ccccc45)C(=O)N[C@H](C(=O)N[C@H](C(=O)N[C@@H](CCCNC(=N)N)C(=O)NC(CCC(N)=O)C(=O)N(C)[C@@H](CCCNC(=N)N)C(=O)NC(Cc4ccc(O)cc4)C(N)=O)[C@@H](C)O)C(C)C)c(=O)c3c2)CC1` (stereo partly drawn) [Example 27], the EC50 (usually the concentration needed to bring the measured effect to its halfway point) on hNPY2R (setting [1]) was 2.3 nM; on Y1R (setting [2]), > 6000 nM; on Y4R (setting [3]), > 6000 nM.

`CCCCCCCCCCCCCCCCCCCC(=O)NCCCCCC(=O)N[C@H](C(=O)N[C@@H](CCCCNC(=O)CCOCCOCCOCCOCCOCCOCCOCCOCCOCCOCCOCCOCCOCCOCCOCCOCCOCCOCCOCCOCCOCCOCCOCCOC)C(=O)N1CCN(c2ccc3ncn(CC(=O)N[C@@H](CCCNC(=N)N)C(=O)N[C@@H](Cc4c[nH]cn4)C(=O)N[C@@H](Cc4ccc(O)cc4)C(=O)N[C@@H](CC(C)C)C(=O)N[C@@H](CC(N)=O)C(=O)N[C@@H](Cc4c[nH]c5ccccc45)C(=O)N[C@H](C(=O)N[C@H](C(=O)N[C@@H](CCCNC(=N)N)C(=O)N[C@@H](CCC(N)=O)C(=O)N(C)[C@@H](CCCNC(=N)N)C(=O)N[C@@H](Cc4ccc(O)cc4)C(N)=O)[C@@H](C)O)C(C)C)c(=O)c3c2)CC1)[C@@H](C)CC` [Example 35]: the EC50 at hNPY2R (setting [1]) is 0.17 nM; at Y1R (setting [2]), > 6000 nM; on Y4R (setting [3]) it was > 6000 nM.

For `CCCCCCCCCCCCCCCCCCCC(=O)N[C@@H](CCS(=O)(=O)O)C(=O)N[C@@H](CCS(=O)(=O)O)C(=O)NCCCC[C@H](NC(=O)[C@@H](NC(=O)CCOCCOCCOCCOCCOCCOCCOCCOCCOCCOCCOCCOCCOCCOCCOCCOCCOCCOCCOCCOCCOCCOCCOCCOC)[C@@H](C)CC)C(=O)N1CCN(c2ccc3ncn(CC(=O)N[C@@H](CCCNC(N)=O)C(=O)NC(Cc4c[nH]cn4)C(=O)N[C@@H](Cc4ccc(O)cc4)C(=O)NC(CC(C)C)C(=O)N[C@@H](CC(N)=O)C(=O)NC(Cc4c[nH]c5ccccc45)C(=O)N[C@H](C(=O)N[C@H](C(=O)N[C@@H](CCCNC(=N)N)C(=O)NC(CCC(N)=O)C(=O)N(C)[C@@H](CCCNC(=N)N)C(=O)NC(Cc4ccc(O)cc4)C(N)=O)[C@@H](C)O)C(C)C)c(=O)c3c2)CC1` (stereo partly drawn) [Example 28], the EC50 on hNPY2R (setting [1]) was 1.8 nM; at Y1R (setting [2]), > 6000 nM; on Y4R (setting [3]), > 6000 nM.

In the case of `CC[C@H](C)[C@H](NC(=O)[C@H](CCC(=O)O)NC(=O)[C@H](CCC(=O)O)NC(=O)CCCCCCCCCCCCCCC(=O)O)C(=O)N[C@@H](CCCCNC(=O)CCOCCOCCOCCOCCOCCOCCOCCOCCOCCOCCOCCOCCOCCOCCOCCOC)C(=O)N1CCN(c2ccc3ncn(CC(=O)N[C@@H](CCCNC(=N)N)C(=O)N[C@@H](Cc4c[nH]cn4)C(=O)N[C@@H](Cc4ccc(O)cc4)C(=O)N[C@@H](CC(C)C)C(=O)N[C@@H](CC(N)=O)C(=O)N[C@@H](Cc4c[nH]c5ccccc45)C(=O)N[C@H](C(=O)N[C@H](C(=O)N[C@@H](CCCNC(=N)N)C(=O)N[C@@H](CCC(N)=O)C(=O)N(C)[C@@H](CCCNC(=N)N)C(=O)N[C@@H](Cc4ccc(O)cc4)C(N)=O)[C@@H](C)O)C(C)C)c(=O)c3c2)CC1` [Example 54], the EC50 at hNPY2R (read-out: Y2R EC50 (nM) cAMP; HEK293/hNPY2R cells, Forskolin 5 μM) is 36 nM; on Y1R (read-out: Y1R EC50 (nM) FLIPR; FLIPR) it was > 6000 nM; at Y4R (read-out: Y4R EC50 (nM) FLIPR; FLIPR), > 6000 nM.

Consider `CCCCCCCCCCCCCCCC(=O)N[C@@H](CCS(=O)(=O)O)C(=O)N[C@@H](CCS(=O)(=O)O)C(=O)NCCCC[C@H](NC(=O)[C@@H](NC(=O)CCOCCOCCOCCOCCOCCOCCOCCOCCOCCOCCOCCOCCOCCOCCOCCOCCOCCOCCOCCOCCOCCOCCOCCOC)[C@@H](C)CC)C(=O)N1CCN(c2ccc3ncn(CC(=O)N[C@@H](CCCNC(=N)N)C(=O)NC(Cc4c[nH]cn4)C(=O)N[C@@H](Cc4ccc(O)cc4)C(=O)NC(CC(C)C)C(=O)N[C@@H](CC(N)=O)C(=O)NC(Cc4c[nH]c5ccccc45)C(=O)N[C@H](C(=O)N[C@H](C(=O)N[C@@H](CCCNC(=N)N)C(=O)NC(CCC(N)=O)C(=O)N(C)[C@@H](CCCNC(=N)N)C(=O)NC(Cc4ccc(O)cc4)C(N)=O)[C@@H](C)O)C(C)C)c(=O)c3c2)CC1` (stereo partly drawn) [Example 29], for which the EC50 on hNPY2R (setting [1]) is 0.14 nM; on Y1R (setting [2]), > 6000 nM; at Y4R (setting [3]), > 6000 nM.

Regarding `CC[C@H](C)[C@H](NC(C)=O)C(=O)N[C@@H](CCCCNC(=O)CCOCCOCCOCCOCCOCCOCCOCCOCCOCCOCCOCCOCCOCCOCCOCCOCCOCCOCCOCCOCCOCCOCCOCCOC)C(=O)N1CCN(c2ccc3ncn(CC(=O)N[C@@H](CCCNC(=N)N)C(=O)N[C@@H](Cc4c[nH]cn4)C(=O)N[C@@H](Cc4ccc(O)cc4)C(=O)N[C@@H](CC(C)C)C(=O)N[C@@H](CC(N)=O)C(=O)N[C@@H](Cc4c[nH]c5ccccc45)C(=O)N[C@H](C(=O)N[C@H](C(=O)N[C@@H](CCCNC(=N)N)C(=O)N[C@@H](CCC(N)=O)C(=O)N(C)[C@@H](CCCNC(=N)N)C(=O)N[C@@H](Cc4ccc(O)cc4)C(N)=O)[C@@H](C)O)C(C)C)c(=O)c3c2)CC1` [Example 21], the values for the EC50 on hNPY2R (setting [1]), on Y1R (setting [2]) and on Y4R (setting [3]) were 1.29 nM, > 6000 nM and > 6000 nM, respectively.
